Assay results published in the NIST ThermoML archive (doi:10.1021/je034188o).

Assay: cn = amount concentration of the nth substance listed, in mol/dm3
Conditions: 101 kPa, Liquid

ClC(Cl)(Cl)Cl [tetrachloromethane] + C1COCCOCCOCCOCCOCCO1
c2 = 0
Conditions | mass density [kg/m3]
293.15 K | 1593.39
298.15 K | 1583.71
303.15 K | 1574.2
308.15 K | 1564.65

C1COCCOCCOCCOCCOCCO1 [1,4,7,10,13,16-hexaoxacyclooctadecane] + ClC(Cl)(Cl)Cl
Conditions | mass density [kg/m3]
293.15 K, c1 = 0.06567 | 1586.34
293.15 K, c1 = 0.09829 | 1582.87
293.15 K, c1 = 0.1283 | 1579.71
293.15 K, c1 = 0.1856 | 1573.71
293.15 K, c1 = 0.2464 | 1567.44
293.15 K, c1 = 0.3256 | 1559.42
298.15 K, c1 = 0.06528 | 1576.94
298.15 K, c1 = 0.09771 | 1573.63
298.15 K, c1 = 0.1275 | 1570.6
298.15 K, c1 = 0.1846 | 1564.86
298.15 K, c1 = 0.2451 | 1558.88
298.15 K, c1 = 0.3239 | 1551.22
303.15 K, c1 = 0.0649 | 1567.64
303.15 K, c1 = 0.09714 | 1564.39
303.15 K, c1 = 0.1268 | 1561.42
303.15 K, c1 = 0.1835 | 1555.75
303.15 K, c1 = 0.2436 | 1549.77
303.15 K, c1 = 0.322 | 1542.04
308.15 K, c1 = 0.06453 | 1558.35
308.15 K, c1 = 0.09662 | 1555.25
308.15 K, c1 = 0.1261 | 1552.41
308.15 K, c1 = 0.1827 | 1547.01
308.15 K, c1 = 0.2426 | 1541.36
308.15 K, c1 = 0.3209 | 1534.08

C1COCCOCCOCCOCCOCCO1 [1,4,7,10,13,16-hexaoxacyclooctadecane] + O
Conditions | mass density [kg/m3]
293.15 K, c1 = 0.0406 | 999.92
293.15 K, c1 = 0.07841 | 1001.5
293.15 K, c1 = 0.1209 | 1003.25
293.15 K, c1 = 0.1782 | 1005.57
293.15 K, c1 = 0.2079 | 1006.75
293.15 K, c1 = 0.2528 | 1008.52
293.15 K, c1 = 0.3203 | 1011.12
298.15 K, c1 = 0.04054 | 998.67
298.15 K, c1 = 0.07831 | 1000.21
298.15 K, c1 = 0.1207 | 1001.91
298.15 K, c1 = 0.1779 | 1004.16
298.15 K, c1 = 0.2076 | 1005.32
298.15 K, c1 = 0.2524 | 1007.03
298.15 K, c1 = 0.3198 | 1009.57
303.15 K, c1 = 0.04049 | 997.39
303.15 K, c1 = 0.0782 | 998.84
303.15 K, c1 = 0.1205 | 1000.51
303.15 K, c1 = 0.1777 | 1002.72
303.15 K, c1 = 0.2073 | 1003.84
303.15 K, c1 = 0.252 | 1005.51
303.15 K, c1 = 0.3193 | 1008
308.15 K, c1 = 0.04042 | 995.61
308.15 K, c1 = 0.07806 | 997.09
308.15 K, c1 = 0.1203 | 998.72
308.15 K, c1 = 0.1774 | 1000.89
308.15 K, c1 = 0.2069 | 1001.99
308.15 K, c1 = 0.2515 | 1003.65
308.15 K, c1 = 0.3187 | 1006.08
